Experimental findings from ChEMBL document CHEMBL1201862, “PubChem BioAssay data set” (2004) are described below.

Structures are written as SMILES. Calls of active or inactive are those of the source.

One may read the IC50 as the midpoint of a concentration-inhibition curve. Broadly, the EC50 is the concentration at which the effect is half-maximal. The CC50 is the concentration that lowers cell viability or growth by half. One may read the AC50 as the concentration at which the activity in the assay is half-maximal.

Data set [1] in a line: viability inhibitors of stage V gametocytes – luminescence, dose response (AID 1117278).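 Further: gametocytes exposed to compound for 24 hours.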 The data set is classed as functional, cell-based.
Data set [2] in a line: viability loss in human Jurkat cells – cell-based, luminescence, cytotoxicity control for P. falciparum gametocyte viability project, dose response (AID 1117277).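 Further: potency reflects loss of cellular ATP meaning fewer viable cells.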 The data set is classed as functional.
Data set [3] addresses Sphingosine 1-phosphate receptor 2 (Homo sapiens, UniProt O95136). In words: Dose Response Cell Based Assay for Agonists of the S1P2 Receptor. [Related pubchem assays: 729, 736, 843 ]. The data set is classed as functional.
Data set [4] concerns the target T1, Bcl-2-related protein A1 (Mus musculus, UniProt Q07440).
T1 sequence (Q07440 whole entry): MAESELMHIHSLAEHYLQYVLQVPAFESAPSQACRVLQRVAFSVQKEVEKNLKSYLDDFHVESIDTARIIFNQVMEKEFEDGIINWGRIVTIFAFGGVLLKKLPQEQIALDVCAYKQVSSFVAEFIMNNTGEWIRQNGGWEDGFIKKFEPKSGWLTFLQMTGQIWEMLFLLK
In words: Bfl-1 binding inhibitors, SAR follow-up, biochemical, fluorescence polarization (AID 1070). In general terms: Polarisation of emitted light reports the rotation of a fluorescent probe.

In data set [5] the target is T1, Bcl-2-related protein A1. Briefly: small-molecule antagonists of Bfl-1/BH3 interaction – biochemical, TR-FRET, mouse Bfl-1, confirmation (AID 621).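 Further: TR-FRET binding of GST-Bfl-1 to FITC-labelled Bid peptide via terbium antibody.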
For data set [6], the target named is Glyceraldehyde-3-phosphate dehydrogenase (Homo sapiens, UniProt P04406).
Data set [7] in a line: viability loss in Vero cells – cytotoxicity control for Vif-APOBEC3G degradation inhibitor project, dose response (AID 1117358). Type of data set: functional. The note with it: Vero.
The nature of data set [8]: viability loss in HeLa cells – cytotoxicity control for MgcRacGAP inhibitor project, dose response (AID 624300). The data set is classed as functional.
Data set [9] in a line: blockers of HIV-1 envelope-mediated cell-cell fusion – cherry-pick, dose response (AID 652057). Type of data set: functional, cell-based.
Data set [10] can be described thus: viability loss in CEM21 cells – cell-based, CellTiter-Glo luminescence, cherry-picked, cytotoxicity control for viral fusion inhibitor project, dose response (AID 652042).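 Further: potency for signal decrease meaning cytotoxicity.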 Type of data set: functional. Background: Cellular ATP, detected with luciferase, serves as a proxy for viable cell number.
Data set [11] concerns the target E3 ubiquitin-protein ligase Mdm2 (Homo sapiens, UniProt Q00987). In words: MDM2-luc reporter signal enhancers, multi-concentration potency testing, MDM2 ubiquitin-protein ligase inhibitor program, whole-cell format, luminescence detection, 384-well microplate (AID 1394).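 Further: MDM2 E3 inhibitors raise luminescence so EC50 is for signal enhancement.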 The data set is classed as functional.
Another data set has as its target Protein Tat (Human immunodeficiency virus type 1 group M subtype B (isolate HXB2)(HIV-1), UniProt P04608). Type of data set: functional.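 Further: tat binding to TAR RNA read out by fluorescence polarization.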
The nature of data set [12]: HIV-1 Vif–A3G interaction blockers – biochemical, TR-FRET, GST-Vif 1-94, biotin-A3G peptide, dose response retest, primary screen (AID 1117319).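 Further: TR-FRET signal of purified GST-Vif binding a biotinylated A3G peptide; inhibitors lower the FRET signal by blocking Vif and A3G binding.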 Type of data set: functional.
The target in a further data set is T2, Streptokinase A (Streptococcus pyogenes serotype M1, UniProt P10520).
T2 sequence (P10520 whole entry): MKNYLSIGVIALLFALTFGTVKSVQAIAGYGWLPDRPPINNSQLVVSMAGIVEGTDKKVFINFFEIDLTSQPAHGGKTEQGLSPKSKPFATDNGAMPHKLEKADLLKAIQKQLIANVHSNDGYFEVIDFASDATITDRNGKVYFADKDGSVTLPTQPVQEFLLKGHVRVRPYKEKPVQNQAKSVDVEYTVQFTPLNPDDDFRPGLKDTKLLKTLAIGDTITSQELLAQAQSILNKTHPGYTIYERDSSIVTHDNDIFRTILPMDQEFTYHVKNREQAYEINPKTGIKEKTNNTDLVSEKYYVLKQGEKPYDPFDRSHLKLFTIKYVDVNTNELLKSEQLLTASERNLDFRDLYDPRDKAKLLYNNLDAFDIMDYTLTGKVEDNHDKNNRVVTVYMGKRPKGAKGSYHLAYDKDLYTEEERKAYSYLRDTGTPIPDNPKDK
Briefly: viability-normalized secreted streptokinase activity reduction – plasminogen activation absorbance, OD405, dose response (AID 1914).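 Further: secreted streptokinase activity via plasminogen activation per viability signal from cell pellet.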 Type of data set: functional, Streptococcus pyogenes M1 GAS.

Data set [13] relates to Streptococcus sp. 'group A'. Briefly: Streptococcus pyogenes SK(-)GAS viability under kanamycin – luminescence, BacTiterGlo, confirmation, counter-screen for streptokinase expression inhibitor project, dose response (AID 1900). The data set is classed as functional, organism-based. (In general: A counterscreen serves to expose hits that act by an unwanted route or on another target.)

Data set [14] addresses T3, Carboxy-terminal domain RNA polymerase II polypeptide A small phosphatase 1 (Homo sapiens, UniProt Q9GZU7).
T3 sequence (Q9GZU7 whole entry): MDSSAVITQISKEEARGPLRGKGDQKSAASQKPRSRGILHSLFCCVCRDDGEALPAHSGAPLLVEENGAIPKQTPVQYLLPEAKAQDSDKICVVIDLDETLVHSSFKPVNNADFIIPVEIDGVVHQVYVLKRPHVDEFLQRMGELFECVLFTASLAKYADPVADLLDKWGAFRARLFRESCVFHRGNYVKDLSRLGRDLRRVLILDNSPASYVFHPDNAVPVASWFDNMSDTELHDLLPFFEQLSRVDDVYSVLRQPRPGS
Briefly: CTDSP1 inhibitors, concentration-response, biochemical, absorbance readout, ultra-high-throughput screen actives (AID 540297). The data set is classed as functional.

Another data set concerns Streptococcus. Briefly: GAS UMAA2166 growth inhibition – luminescence, BacTiterGlo, counter-screen for streptokinase expression inhibitor project, dose response (AID 1915).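 Further: potency for reduction of bacterial viability or growth.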 Type of data set: functional, organism-based.
Data set [15] deals with Protein-tyrosine kinase 2-beta (Homo sapiens, UniProt Q14289).
In the next data set the target is T4, Cytochrome P450 1A2 (Homo sapiens, UniProt P05177).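 Further: PubChem cytochrome P450 panel assay, CYP1A2 panel member.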
T4 sequence (P05177 whole entry): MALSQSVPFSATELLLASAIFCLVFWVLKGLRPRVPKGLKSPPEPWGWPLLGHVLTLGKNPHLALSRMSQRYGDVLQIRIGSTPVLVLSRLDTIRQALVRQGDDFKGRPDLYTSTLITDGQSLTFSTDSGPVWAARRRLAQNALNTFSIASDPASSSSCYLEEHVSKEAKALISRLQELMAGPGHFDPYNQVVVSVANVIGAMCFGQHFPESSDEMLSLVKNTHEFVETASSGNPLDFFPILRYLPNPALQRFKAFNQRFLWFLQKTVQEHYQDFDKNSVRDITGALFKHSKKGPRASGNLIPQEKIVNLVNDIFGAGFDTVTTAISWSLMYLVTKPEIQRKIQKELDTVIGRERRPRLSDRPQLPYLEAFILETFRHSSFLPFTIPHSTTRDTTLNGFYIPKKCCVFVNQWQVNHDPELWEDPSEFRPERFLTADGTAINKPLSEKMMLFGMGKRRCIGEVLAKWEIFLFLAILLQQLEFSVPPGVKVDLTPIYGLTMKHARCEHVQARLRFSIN

The target of another data set is Cytochrome P450 2C19 (Homo sapiens, UniProt P33261). Briefly: Cytochrome panel assay with activity outcomes. Panel member name: p450-cyp2c19 Compounds with AC50 equal or less than 10 uM are considered active. The note with it: read-out: AC50. The data set is classed as functional.
A further data set deals with Cytochrome P450 3A4 (Homo sapiens, UniProt P08684).
In the next data set the target is Cytochrome P450 2C9 (Homo sapiens, UniProt P11712).
The nature of data set [16]: viability loss in THP-1 monocytes – THP-1 cells, cytotoxicity control for Vif-APOBEC3G degradation inhibitor project, dose response (AID 1117359). Type of data set: functional. The note with it: THP-1.
A short description of data set [17]: Potency on glucagon-like peptide 1 release, dose-response in NCI-H716 cell line, half maximal inhibitory concentration (AID 1117344). Type of data set: functional, cell-based.
The nature of data set [18]: glucagon-like peptide-1 release potency in STC-1, concentration-response, half-maximal inhibitory concentration in the STC-1 line (AID 1117345). Type of data set: functional, cell-based.

E3 ubiquitin-protein ligase Mdm2, sequence (Q00987 whole entry): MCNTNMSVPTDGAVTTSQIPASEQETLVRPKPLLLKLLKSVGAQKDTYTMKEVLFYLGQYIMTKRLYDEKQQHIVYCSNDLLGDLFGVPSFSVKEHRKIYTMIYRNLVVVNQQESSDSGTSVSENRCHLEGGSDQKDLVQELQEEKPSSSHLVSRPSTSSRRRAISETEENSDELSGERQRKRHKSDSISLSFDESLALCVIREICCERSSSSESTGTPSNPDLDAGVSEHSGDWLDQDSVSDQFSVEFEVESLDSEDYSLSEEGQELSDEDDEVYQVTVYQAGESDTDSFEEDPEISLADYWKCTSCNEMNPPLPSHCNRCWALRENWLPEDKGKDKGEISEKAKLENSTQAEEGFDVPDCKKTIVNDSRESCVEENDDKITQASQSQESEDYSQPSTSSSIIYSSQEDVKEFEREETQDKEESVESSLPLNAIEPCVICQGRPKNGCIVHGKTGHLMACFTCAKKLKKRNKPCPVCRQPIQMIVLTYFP
Sphingosine 1-phosphate receptor 2, sequence (O95136 whole entry): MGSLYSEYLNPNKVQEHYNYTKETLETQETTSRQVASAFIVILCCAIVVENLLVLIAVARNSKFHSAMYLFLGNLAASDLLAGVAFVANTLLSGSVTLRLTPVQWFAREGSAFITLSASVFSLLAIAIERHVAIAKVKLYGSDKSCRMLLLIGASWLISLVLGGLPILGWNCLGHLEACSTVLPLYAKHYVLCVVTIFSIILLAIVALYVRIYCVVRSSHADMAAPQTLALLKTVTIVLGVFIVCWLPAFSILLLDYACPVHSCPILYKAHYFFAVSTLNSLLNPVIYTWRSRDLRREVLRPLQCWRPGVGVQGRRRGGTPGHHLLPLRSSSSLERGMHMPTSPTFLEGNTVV
Cytochrome P450 2C9, sequence (P11712 whole entry): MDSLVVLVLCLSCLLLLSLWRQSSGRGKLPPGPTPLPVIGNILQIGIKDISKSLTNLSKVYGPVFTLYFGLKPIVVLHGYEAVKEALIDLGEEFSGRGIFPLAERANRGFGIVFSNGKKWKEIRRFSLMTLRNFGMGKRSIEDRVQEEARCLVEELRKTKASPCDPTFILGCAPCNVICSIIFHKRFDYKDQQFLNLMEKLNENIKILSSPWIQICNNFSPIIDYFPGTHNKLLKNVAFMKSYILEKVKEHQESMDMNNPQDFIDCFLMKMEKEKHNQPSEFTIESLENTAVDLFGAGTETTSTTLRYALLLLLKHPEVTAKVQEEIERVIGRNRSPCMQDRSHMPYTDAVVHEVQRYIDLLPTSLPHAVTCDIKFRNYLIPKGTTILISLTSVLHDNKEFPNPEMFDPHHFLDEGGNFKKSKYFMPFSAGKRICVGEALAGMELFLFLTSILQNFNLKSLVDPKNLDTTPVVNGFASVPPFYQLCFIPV
Protein-tyrosine kinase 2-beta, sequence (Q14289 whole entry): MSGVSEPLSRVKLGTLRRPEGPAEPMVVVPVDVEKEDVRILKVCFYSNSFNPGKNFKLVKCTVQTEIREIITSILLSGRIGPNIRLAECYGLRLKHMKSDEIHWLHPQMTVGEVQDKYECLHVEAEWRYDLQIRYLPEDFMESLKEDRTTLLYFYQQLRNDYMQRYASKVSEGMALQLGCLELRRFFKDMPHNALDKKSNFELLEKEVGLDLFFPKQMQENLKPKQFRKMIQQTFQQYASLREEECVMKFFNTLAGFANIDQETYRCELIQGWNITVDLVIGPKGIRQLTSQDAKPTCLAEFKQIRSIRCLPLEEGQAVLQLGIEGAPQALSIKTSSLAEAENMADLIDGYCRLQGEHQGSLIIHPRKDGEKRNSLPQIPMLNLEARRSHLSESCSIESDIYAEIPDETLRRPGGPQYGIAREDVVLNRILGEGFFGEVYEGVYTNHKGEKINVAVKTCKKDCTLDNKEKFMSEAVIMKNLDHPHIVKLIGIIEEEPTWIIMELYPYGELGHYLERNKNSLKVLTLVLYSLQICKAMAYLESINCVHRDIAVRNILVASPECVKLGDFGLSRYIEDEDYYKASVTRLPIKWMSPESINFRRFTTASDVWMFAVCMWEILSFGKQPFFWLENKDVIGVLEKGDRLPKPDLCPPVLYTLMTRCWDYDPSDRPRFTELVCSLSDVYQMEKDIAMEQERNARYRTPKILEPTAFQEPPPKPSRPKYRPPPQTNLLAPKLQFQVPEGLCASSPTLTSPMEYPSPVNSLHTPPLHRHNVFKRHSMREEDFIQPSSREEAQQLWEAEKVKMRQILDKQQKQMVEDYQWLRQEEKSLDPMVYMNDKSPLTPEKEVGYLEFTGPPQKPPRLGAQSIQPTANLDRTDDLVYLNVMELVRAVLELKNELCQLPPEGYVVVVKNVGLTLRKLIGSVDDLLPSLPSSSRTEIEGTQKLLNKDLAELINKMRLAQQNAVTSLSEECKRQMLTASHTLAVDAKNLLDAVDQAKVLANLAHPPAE
Protein Tat, sequence (P04608 whole entry): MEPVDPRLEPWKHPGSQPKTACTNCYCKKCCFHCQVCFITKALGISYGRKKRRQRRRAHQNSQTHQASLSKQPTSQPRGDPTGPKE
Cytochrome P450 3A4, sequence (P08684 whole entry): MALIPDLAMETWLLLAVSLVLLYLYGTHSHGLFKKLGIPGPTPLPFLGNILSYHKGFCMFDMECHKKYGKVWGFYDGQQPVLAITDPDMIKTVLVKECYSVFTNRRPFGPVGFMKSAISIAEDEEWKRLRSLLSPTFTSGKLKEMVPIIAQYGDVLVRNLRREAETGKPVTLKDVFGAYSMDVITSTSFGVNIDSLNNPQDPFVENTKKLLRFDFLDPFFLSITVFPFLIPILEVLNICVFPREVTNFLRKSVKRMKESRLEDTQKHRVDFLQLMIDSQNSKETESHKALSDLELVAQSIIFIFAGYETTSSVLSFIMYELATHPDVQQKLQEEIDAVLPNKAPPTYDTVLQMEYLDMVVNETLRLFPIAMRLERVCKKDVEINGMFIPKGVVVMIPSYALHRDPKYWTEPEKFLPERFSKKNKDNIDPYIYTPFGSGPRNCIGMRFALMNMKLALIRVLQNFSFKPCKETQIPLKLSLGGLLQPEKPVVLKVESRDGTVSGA
Glyceraldehyde-3-phosphate dehydrogenase, sequence (P04406 whole entry): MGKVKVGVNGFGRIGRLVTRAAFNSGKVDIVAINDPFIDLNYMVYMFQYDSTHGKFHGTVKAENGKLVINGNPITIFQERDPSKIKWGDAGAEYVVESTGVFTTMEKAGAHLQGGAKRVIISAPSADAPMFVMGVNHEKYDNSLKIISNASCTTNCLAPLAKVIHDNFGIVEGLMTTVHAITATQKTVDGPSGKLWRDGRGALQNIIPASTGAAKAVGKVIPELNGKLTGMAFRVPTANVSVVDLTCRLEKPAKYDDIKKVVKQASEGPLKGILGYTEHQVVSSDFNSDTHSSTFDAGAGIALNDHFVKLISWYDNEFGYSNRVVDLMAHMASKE
Cytochrome P450 2C19, sequence (P33261 whole entry): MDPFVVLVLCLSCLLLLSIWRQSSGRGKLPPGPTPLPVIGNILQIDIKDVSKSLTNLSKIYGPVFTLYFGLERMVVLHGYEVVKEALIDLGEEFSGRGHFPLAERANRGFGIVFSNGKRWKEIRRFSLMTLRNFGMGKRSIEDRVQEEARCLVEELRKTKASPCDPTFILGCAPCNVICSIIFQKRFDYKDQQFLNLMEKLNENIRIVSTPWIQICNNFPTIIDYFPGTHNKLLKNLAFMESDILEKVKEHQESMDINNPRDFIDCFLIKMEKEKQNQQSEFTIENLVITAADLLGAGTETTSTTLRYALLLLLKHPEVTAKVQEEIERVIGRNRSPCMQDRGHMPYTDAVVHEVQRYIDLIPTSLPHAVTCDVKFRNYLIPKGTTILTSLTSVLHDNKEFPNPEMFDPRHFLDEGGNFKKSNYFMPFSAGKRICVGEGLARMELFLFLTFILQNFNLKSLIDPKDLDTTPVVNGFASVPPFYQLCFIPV

Regarding `CC1CCCCN1C(=O)Cn1c(=O)oc2ccccc21` (stereo not given), the IC50 was > 109 µM (inactive) in data set [1] and > 83.3 µM (inactive) in [2].

As for `Cc1cc(-c2nnc(SCC(=O)NC3CCCC3)o2)no1`, the EC50 in [3] is > 50 µM (not active).

With `O=C1C(Cl)=C(N2CCN(Cc3ccc4c(c3)OCO4)CC2)C(=O)N1c1ccc([N+](=O)[O-])cc1`, the values for the IC50 (at Bcl-2-related protein A1 [4]; on Bcl-2-related protein A1 [5]; in data set [6]) were 4.68 µM (active), 4.59 µM (active) and > 100 µM (not active), respectively.

For `COc1ccc2[nH]c3c(N4CCC(O)(c5cccc(C(F)(F)F)c5)CC4)ncnc3c2c1`, the CC50 is 29.4 µM (active) in data set [7] and 33 µM (active) in data set [8]. Besides, the values for the AC50 in [9] and in data set [10] were 9.77 µM (active) and 7.3 µM (active), respectively.

Take `Cc1ccsc1C1Nc2ccc3ncccc3c2C2=C1C(=O)CCC2` (stereo not given): the EC50 in data set [11] is reported as 25 µM (not active).

Regarding `CC(=O)C1=C(O)C(=O)N(Cc2ccco2)C1c1ccc(F)cc1` (stereo not given), the IC50 (on Protein Tat; in data set [12]) was > 100 µM (active) throughout.

With `COc1ccc(Cn2c(-c3ccco3)nc3oc4cc(OC)ccc4c(=O)c3c2=O)cc1`, the EC50 on Streptokinase A is > 150 µM (not active); in data set [3] it was > 50 µM (not active); in data set [13] it was 25.5 µM (active); with Streptococcus, > 150 µM (not active). In data set [14], the IC50 is 7.58 µM (active).

Take `COc1ccc2ncc(S(=O)(=O)c3ccccc3)c(N3CCN(c4ccccc4)CC3)c2c1`: the EC50 at Streptokinase A is > 150 µM (not active); in [13], 9.42 µM (active); with Streptococcus, 74.8 µM (active). Also, the IC50 in data set [1] is > 109 µM (inactive); in [2] it was > 83.3 µM (inactive).

`O=C1C(Cl)=C(N2CCN(c3ccc(F)cc3)CC2)C(=O)N1c1ccc(Cl)c(Cl)c1`: the IC50 on Bcl-2-related protein A1 [4] was > 100 µM (not active); at Bcl-2-related protein A1 [5], 19.1 µM (active).

For the molecule `C=CCn1c(P(=O)(O)c2ccccc2)nc2ccccc21`, in data set [15], the IC50 is on record as 26.6 µM (not active). Also, the half-maximal activity concentration (AC50) is 15.8 µM (inconclusive) on Cytochrome P450 1A2, 6.31 µM (inconclusive) at Cytochrome P450 2C19, “inconclusive” on Cytochrome P450 3A4 and 25.1 µM (inconclusive) on Cytochrome P450 2C9.

For `COc1cccc(-c2nc(CS(=O)(=O)CC(=O)NC3CC3)c(C)o2)c1`, the cytotoxic concentration (CC50) in data set [16] was > 40 µM (active).

For the molecule `COC(=O)C(C(=O)Nc1ccc(OC)cc1)C1CCCCCC1` (stereo not given), in data set [7], the CC50 is > 40 µM (active).

On to `NC(=O)c1c(NC(=O)C2CCCO2)sc2c1CCCC2` (stereo not given), for which, in data set [11], the half-maximal effective concentration (EC50) was 7.26 µM (not active).

As for `O=c1oc2ccccc2c(O)c1C(CC(O)c1ccc(-c2ccc(Br)cc2)cc1)c1ccccc1` (stereo not given) [BROMODIOLONE], the IC50 in data set [17] is > 40 µM (inactive); in data set [18], 9.16 µM (inactive).
